Where two headings read alike, the source gives them in different places.
Experiments:
Human Jak2 kinase domain = Human Jak2 kinase domain (Homo sapiens (Human), UniProt O60674); experiment: Jak2 Inhibition Assay (Omnia kinase assay); format: biochemical; details: for IC50: read-out: Jak2 Enzyme IC50; for Jak2 Enzyme (% inhibition at 1000 nM): 1000 nM test compound
Experimental: The assays described in Examples C, D, E and F for the determination of JAK1, JAK2, JAK3 and Tyk2 kinase activity, respectively, utilized the Omnia® Kinase fluorescence peptide substrate-based technology (Invitrogen). […] The reactions were therefore read at excitation 360 nm and emission was measured at 485 nm every 50 seconds for 45 minutes using a PerkinElmer EnVision Multilabel Plate Reader.
The final buffer conditions for each of the JAK1, JAK2, JAK3 and Tyk2 assays were as follows: 25 mM HEPES, pH 7.4, 10 mM MgCl2, 0.01% Triton X-100 and 1 mM DTT.
Two-μL aliquots of these were transferred to a fresh plate for a ten-fold intermediate dilution with assay buffer. Five-μL aliquots of the diluted compounds were then transferred to 20-μL of assay mixtures described in Examples C, D, E and F for a final concentration of DMSO of 2%. […] For each plate, percent of control (POC) values were calculated for each well according to the following equation:
[formula] • where • Xmax=Average Uninhibited Controls • Xmin=Average Background IC50's were estimated from the POC's using a standard 4-parameter logistic model:
[formula] • where • A=Minimum Y (Bottom Asymptote) • B=Maximum Y (Top Asymptote) • C=EC50 • D=Slope Factor • X=Compound Concentration (nM) • Y=POC
The IC50 is defined as the concentration of inhibitor at which the POC equals 50 for the fitted curve.
Compounds of Formula I were screened for their ability to inhibit Jak2 using the general enzyme inhibition assay method, in which the assay mixture contained 500 μM ATP, 10 μM Omnia® Y7 peptide (Catalog # IVGN KNZ3071C, Invitrogen Corporation, Carlsbad, Calif.) and 4 nM Jak2 in a total volume of 20 μL. Human Jak2 kinase domain comprising amino acids 808-1132 was purchased from Invitrogen Corporation, Carlsbad, Calif. (catalog # IVGN PV4210).

[1] = target: TrkA (histidine-tagged recombinant human TrkA, cytoplasmic domain) (Homo sapiens (Human), UniProt P04629); experiment: TrkA ELISA Assay; format: biochemical; details: Table 1; ELISA, 500 μM ATP; read-out: TrkA Enzyme IC50
Sequence of TrkA (histidine-tagged recombinant human TrkA, cytoplasmic domain) (P04629 440-796): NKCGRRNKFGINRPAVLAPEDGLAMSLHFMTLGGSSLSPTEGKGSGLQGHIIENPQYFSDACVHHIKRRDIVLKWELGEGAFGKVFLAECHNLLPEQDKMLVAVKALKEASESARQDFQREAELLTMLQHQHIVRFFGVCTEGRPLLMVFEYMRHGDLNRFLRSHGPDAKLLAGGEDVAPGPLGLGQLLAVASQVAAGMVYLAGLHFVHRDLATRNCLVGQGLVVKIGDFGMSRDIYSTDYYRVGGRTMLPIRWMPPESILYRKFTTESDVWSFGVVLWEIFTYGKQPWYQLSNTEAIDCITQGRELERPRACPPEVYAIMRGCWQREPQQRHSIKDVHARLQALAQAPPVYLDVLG
Experimental: An enzyme-linked immunosorbant assay (ELISA) was used to assess TrkA kinase activity in the presence of inhibitors. Immulon 4HBX 384-well microtiter plates (Thermo part #8755) were coated with a 0.025 mg/mL solution of poly (Glu, Ala, Tyr; 6:3:1; Sigma P3899). […] The reaction mixture was removed from the plate by washing with PBS containing 0.1% (v/v) Tween 20. The phosphorylated reaction product was detected using 0.2 μg/mL of a phosphotyrosine specific monoclonal antibody (clone PY20) conjugated to horseradish peroxidase in conjunction with the TMB Peroxidase Substrate System (KPL). After the addition of 1M phosphoric acid, the chromogenic substrate color intensity was quantitated via absorbance at 450 nm.

[2] = Table 1, 500 μM ATP, >1000 nM when >50% inhibition not observed at 1000 nM

Sequence of Human Jak2 kinase domain (O60674 808-1132): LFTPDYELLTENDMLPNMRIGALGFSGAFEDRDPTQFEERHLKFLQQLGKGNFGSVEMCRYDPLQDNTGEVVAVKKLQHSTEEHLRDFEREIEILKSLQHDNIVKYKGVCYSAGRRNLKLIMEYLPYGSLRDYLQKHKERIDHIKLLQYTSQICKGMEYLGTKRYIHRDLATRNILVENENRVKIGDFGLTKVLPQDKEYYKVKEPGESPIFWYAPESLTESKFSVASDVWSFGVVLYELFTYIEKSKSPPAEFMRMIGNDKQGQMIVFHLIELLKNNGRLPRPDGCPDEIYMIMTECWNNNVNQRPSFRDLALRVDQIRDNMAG

| Compound | IC50 (Human Jak2 kinase domain; [2]) [nM] | IC50 [1] [nM] | IC50 (Human Jak2 kinase domain) [nM] | Jak2 Enzyme (% inhibition at 1000 nM) (Human Jak2 kinase domain; Table 1) |
| --- | --- | --- | --- | --- |
| COc1ncc(F)cc1[C@H]1CCCN1c1ccn2ncc(C(=O)NC[C@H](C)O)c2n1 [Example 156, 5-((R)-2-(5-fluoro-2-methoxypyridin-3-yl)pyrrolidin-1-yl)-N-((S)-2-hydroxypropyl)pyrazolo[1,5-a]pyrimidine-3-carboxamide] | > 1000 | 2.1 |  |  |
| COc1ncc(F)cc1[C@H]1CCCN1c1ccn2ncc(C(=O)NCCO)c2n1 [Example 155, (R)-5-(2-(5-fluoro-2-methoxypyridin-3-yl)pyrrolidin-1-yl)-N-(2-hydroxyethyl)pyrazolo[1,5-a]pyrimidine-3-carboxamide] | > 1000 | 0.2 |  |  |
| CC[C@@H](CO)NC(=O)c1cnn2ccc(N3CCC[C@@H]3c3cc(F)ccc3F)nc12 [Example 178, 5-((R)-2-(2,5-difluorophenyl)pyrrolidin-1-yl)-N-((S)-1-hydroxybutan-2-yl)pyrazolo[1,5-a]pyrimidine-3-carboxamide] | > 1000 | 2.5 |  |  |
| O=C(NCCO)c1cnn2ccc(N3CCC[C@@H]3c3cncc(F)c3)nc12 [Example 112, (R)-5-(2-(5-fluoropyridin-3-yl)pyrrolidin-1-yl)-N-(2-hydroxyethyl)pyrazolo[1,5-a]pyrimidine-3-carboxamide] | > 1000 | 30.9 |  |  |
| O=C(c1cnn2ccc(N3CCC[C@@H]3c3cncc(F)c3)nc12)N1CC(O)C1 [Example 108, (R)-(5-(2-(5-fluoropyridin-3-yl)pyrrolidin-1-yl)pyrazolo[1,5-a]pyrimidin-3-yl)(3-hydroxyazetidin-1-yl)methanone] | > 1000 | 1190 |  |  |
| CNC(=O)c1cnn2ccc(N3CCC[C@@H]3c3cc(F)ccc3F)nc12 [Example 10, (R)-5-(2-(2,5-difluorophenyl)pyrrolidin-1-yl)-N-methylpyrazolo[1,5-a]pyrimidine-3-carboxamide] | > 1000 | 1.05 |  |  |
| COc1ncc(F)cc1[C@H]1CCCN1c1ccn2ncc(C(=O)Nc3cc(C)n[nH]3)c2n1 [Example 240, (R)-5-(2-(5-fluoro-2-methoxypyridin-3-yl)pyrrolidin-1-yl)-N-(3-methyl-1H-pyrazol-5-yl)pyrazolo[1,5-a]pyrimidine-3-carboxamide] |  | 11.3 |  |  |
| Cn1cc(F)cc([C@H]2CCCN2c2ccn3ncc(C(=O)NC4CCC4)c3n2)c1=O [Example 230, (R)-N-cyclobutyl-5-(2-(5-fluoro-1-methyl-2-oxo-1,2-dihydropyridin-3-yl)pyrrolidin-1-yl)pyrazolo[1,5-a]pyrimidine-3-carboxamide] | 666 | 3 |  |  |
| Cn1cc(F)cc([C@H]2CCCN2c2ccn3ncc(C(=O)N[C@@H]4CCCC[C@H]4O)c3n2)c1=O [Example 234, 5-((R)-2-(5-fluoro-1-methyl-2-oxo-1,2-dihydropyridin-3-yl)pyrrolidin-1-yl)-N-((1R,2R)-2-hydroxycyclohexyl)pyrazolo[1,5-a]pyrimidine-3-carboxamide] | > 1000 | 10.7 |  |  |
| COc1ncc(F)cc1[C@H]1CCCN1c1ccn2ncc(C(=O)N3CC(C)(O)C3)c2n1 [Example 147, (R)-(5-(2-(5-fluoro-2-methoxypyridin-3-yl)pyrrolidin-1-yl)pyrazolo[1,5-a]pyrimidin-3-yl)(3-hydroxy-3-methylazetidin-1-yl)methanone] | > 1000 | 30.8 |  |  |
| C[C@@H](NC(=O)c1cnn2ccc(N3CCC[C@@H]3c3cncc(F)c3)nc12)C(F)(F)F [Example 129, 5-((R)-2-(5-fluoropyridin-3-yl)pyrrolidin-1-yl)-N-((R)-1,1,1-trifluoropropan-2-yl)pyrazolo[1,5-a]pyrimidine-3-carboxamide] | > 1000 | 8 |  |  |
| CN1CCN(CCNC(=O)c2cnn3ccc(N4CCC[C@@H]4c4cc(F)ccc4F)nc23)CC1 [Example 171, 5-((R)-2-(2,5-difluorophenyl)pyrrolidin-1-yl)-N-(2-(4-methylpiperazin-1-yl)ethyl)pyrazolo[1,5-a]pyrimidine-3-carboxamide] | > 1000 | 4.7 |  |  |
| C[C@H](O)[C@H](CO)NC(=O)c1cnn2ccc(N3CCC[C@@H]3c3cc(F)ccc3F)nc12 [Example 175, 5-((R)-2-(2,5-difluorophenyl)pyrrolidin-1-yl)-N-((2S,3S)-1,3-dihydroxybutan-2-yl)pyrazolo[1,5-a]pyrimidine-3-carboxamide] | > 1000 | 12.2 |  |  |
| COc1ncc(F)cc1[C@H]1CCCN1c1ccn2ncc(C(=O)NC(C)(C)CF)c2n1 [Example 81, (R)-5-(2-(5-fluoro-2-methoxypyridin-3-yl)pyrrolidin-1-yl)-N-(1-fluoro-2-methylpropan-2-yl)pyrazolo[1,5-a]pyrimidine-3-carboxamide] |  | 1.15 | 666 |  |
| O=C(N[C@@H]1CCC[C@@H]1O)c1cnn2ccc(N3CCC[C@@H]3c3cncc(F)c3)nc12 [Example 135, 5-((R)-2-(5-fluoropyridin-3-yl)pyrrolidin-1-yl)-N-((1R,2S)-2-hydroxycyclopentyl)pyrazolo[1,5-a]pyrimidine-3-carboxamide] | > 1000 | 142 |  |  |
| Cc1ncc(F)cc1[C@H]1CCCN1c1ccn2ncc(C(=O)N[C@H]3CN4CCC3CC4)c2n1 [Example 198, 5-((R)-2-(5-fluoro-2-methylpyridin-3-yl)pyrrolidin-1-yl)-N-((R)-quinuclidin-3-yl)pyrazolo[1,5-a]pyrimidine-3-carboxamide] | > 1000 | 243 |  |  |
| Cc1ccc(CNC(=O)c2cnn3ccc(N4CCC[C@@H]4c4cc(F)ccc4F)nc23)o1 [Example 5, (R)-5-(2-(2,5-difluorophenyl)pyrrolidin-1-yl)-N-((5-methylfuran-2-yl)methyl)pyrazolo[1,5-a]pyrimidine-3-carboxamide] | > 1000 | 0.95 |  |  |
| Cn1cnc(CNC(=O)c2cnn3ccc(N4CCC[C@@H]4c4cc(F)ccc4F)nc23)c1 [Example 21, (R)-5-(2-(2,5-difluorophenyl)pyrrolidin-1-yl)-N-((1-methyl-1H-imidazol-4-yl)methyl)pyrazole[1,5-a]pyrimidine-3-carboxamide] | > 1000 | 2.95 |  |  |
| Cc1ncc(F)cc1[C@H]1CCCN1c1ccn2ncc(C(=O)N[C@H]3CC[C@@H](O)CC3)c2n1 [Example 195, 5-((R)-2-(5-fluoro-2-methylpyridin-3-yl)pyrrolidin-1-yl)-N-((cis)-4-hydroxycyclohexyl)pyrazolo[1,5-a]pyrimidine-3-carboxamide] |  |  |  | (16.2) % |
| COc1ncc(F)cc1[C@H]1CCCN1c1ccn2ncc(C(=O)Nc3ccn(C(C)C)n3)c2n1 [Example 244, (R)-5-(2-(5-fluoro-2-methoxypyridin-3-yl)pyrrolidin-1-yl)-N-(1-isopropyl-1H-pyrazol-3-yl)pyrazolo[1,5-a]pyrimidine-3-carboxamide] |  | 38.2 |  |  |
| O=C(N[C@H]1CC[C@@H](O)CC1)c1cnn2ccc(N3CCC[C@@H]3c3cncc(F)c3)nc12 [Example 100, 5-((R)-2-(5-fluoropyridin-3-yl)pyrrolidin-1-yl)-N-((cis)-4-hydroxycyclohexyl)pyrazolo[1,5-a]pyrimidine-3-carboxamide] |  |  |  | (13.8) % |
| COc1ncc(F)cc1[C@H]1CCCN1c1ccn2ncc(C(=O)Nc3cc(C4CC4)n[nH]3)c2n1 [Example 242, (R)-N-(3-cyclopropyl-1H-pyrazol-5-yl)-5-(2-(5-fluoro-2-methoxypyridin-3-yl)pyrrolidin-1-yl)pyrazolo[1,5-a]pyrimidine-3-carboxamide] |  | 8.9 |  |  |
| O=C(NCCN1CCC(O)CC1)c1cnn2ccc(N3CCC[C@@H]3c3cc(F)ccc3F)nc12 [Example 170, 5-((R)-2-(2,5-difluorophenyl)pyrrolidin-1-yl)-N-(2-(4-hydroxypiperidin-1-yl)ethyl)pyrazolo[1,5-a]pyrimidine-3-carboxamide] | > 1000 |  |  |  |
| COc1ncc(F)cc1[C@H]1CCCN1c1ccn2ncc(C(=O)Nc3ccn(C)n3)c2n1 [Example 241, (R)-5-(2-(5-fluoro-2-methoxypyridin-3-yl)pyrrolidin-1-yl)-N-(1-methyl-1H-pyrazol-3-yl)pyrazolo[1,5-a]pyrimidine-3-carboxamide] |  | 21.8 |  |  |
